Where “and” joins values, the source holds several entries; their conditions need not be identical. Equal entries are not always repeated. Inconclusive results and toxic doses are left out. The calls were made as follows: active = survival T/C of 150% or more; inactive = T/C below 125% in these data.
Test system: CD2F1 mice, L1210 leukemia ip, survival T/C
Test: NCI In Vivo Anticancer Drug Screen. Data for tumor model L1210 Leukemia (intraperitoneal) in CD2F1 (CDF1) mice
Details: endpoint: mean survival time, higher = longer survival
How it was run: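 Mice carrying a transplanted tumor received test compound or vehicle alone. The value is the measurement in the treated group divided by that in the vehicle-treated control group.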

[1] = dose: 100.0 mg/kg/injection, schedule: Q04DX003 (ip), vehicle: saline with Tween-80
[2] = dose: 200.0 mg/kg/injection, schedule: Q04DX003 (ip), vehicle: saline with Tween-80
[3] = dose: 400.0 mg/kg/injection, schedule: Q04DX003 (ip), vehicle: saline with Tween-80
[4] = dose: 100.0 mg/kg/injection, schedule: Q01DX001 (ip), vehicle: saline with Tween-80
[5] = dose: 100.0 mg/kg/injection, schedule: Q01DX009 (ip), vehicle: saline with Tween-80
[6] = dose: 200.0 mg/kg/injection, schedule: Q01DX001 (ip), vehicle: saline with Tween-80
[7] = dose: 200.0 mg/kg/injection, schedule: Q01DX009 (ip), vehicle: saline with Tween-80
[8] = dose: 400.0 mg/kg/injection, schedule: Q01DX001 (ip), vehicle: saline with Tween-80
[9] = dose: 400.0 mg/kg/injection, schedule: Q01DX009 (ip), vehicle: saline with Tween-80

Measured: T/C

NC(=O)CSCC(N)=O
inactive: [1] 94 % of control | [2] 96 % of control | [3] 90 % of control

Cc1cnc(Cl)c(Br)c1
inactive: [4] 96 % of control | [5] 104 % of control | [6] 101 % of control | [7] 100 % of control | [8] 95 % of control | [9] 106 % of control

O=C(CO)C(O)C(O)C(O)C(O)CO (stereo not drawn)
inactive: dose: 100.0 mg/kg/injection, schedule: Q01DX001 (ip), vehicle: saline 100 % of control and 105 % of control | dose: 200.0 mg/kg/injection, schedule: Q01DX001 (ip), vehicle: saline 102 % of control and 94 % of control | dose: 400.0 mg/kg/injection, schedule: Q01DX001 (ip), vehicle: saline 96 % of control

CCCCC(=O)O.[Pb]
inactive: dose: 75.0 mg/kg/injection, schedule: Q01DX001 (ip), vehicle: steriod suspending solution 100 % of control | dose: 150.0 mg/kg/injection, schedule: Q01DX001 (ip), vehicle: steriod suspending solution 104 % of control | dose: 300.0 mg/kg/injection, schedule: Q01DX001 (ip), vehicle: steriod suspending solution 97 % of control

[Cl][Dy]([Cl])[Cl]
inactive: dose: 50.0 mg/kg/injection, schedule: Q01DX009 (ip), vehicle: saline with Tween-80 89 % of control | [7] 90 % of control

CCOC(=O)N/N=C/c1ccccc1
inactive: [4] 103 % of control | [6] 108 % of control | [8] 110 % of control

N#CCCC(CCC#N)c1ccccc1
inactive: [5] 107 % of control | [1] 106 % of control | [7] 103 % of control | [2] 93 % of control | [9] 105 % of control | [3] 104 % of control

CNC(=O)c1n[nH]c(C)c1N
inactive: dose: 25.0 mg/kg/injection, schedule: Q01DX009 (ip), vehicle: water 97 % of control | dose: 50.0 mg/kg/injection, schedule: Q01DX009 (ip), vehicle: water 98 % of control | dose: 100.0 mg/kg/injection, schedule: Q01DX009 (ip), vehicle: water 101 % of control | dose: 200.0 mg/kg/injection, schedule: Q01DX009 (ip), vehicle: water 98 % of control | dose: 400.0 mg/kg/injection, schedule: Q01DX009 (ip), vehicle: water 101 % of control

C=C(C)C1Cc2c(ccc3c2OC2COc4cc(OC)c(OC)cc4C2C3=O)O1 (stereo not drawn)
inactive: [5] 92 % of control | [1] 103 % of control | [7] 93 % of control | [2] 101 % of control | [9] 94 % of control | [3] 97 % of control

CSc1ccc(O)c(C)c1
inactive: [1] 104 % of control | [7] 97 % of control | [2] 102 % of control | [3] 104 % of control

COC(=O)NS(=O)(=O)Nc1ccccc1
inactive: [5] 93 % of control | [7] 93 % of control | [9] 87 % of control

CC1C(C(=O)c2ccccc2)C(c2ccccc2)OP1(c1ccccc1)(c1ccccc1)c1ccccc1 (stereo not drawn)
inactive: dose: 6.25 mg/kg/injection, schedule: Q01DX001 (ip), vehicle: saline with Tween-80 97 % of control | dose: 12.5 mg/kg/injection, schedule: Q01DX001 (ip), vehicle: saline with Tween-80 96 % of control | dose: 25.0 mg/kg/injection, schedule: Q01DX001 (ip), vehicle: saline with Tween-80 105 % of control

Nc1ncnc2c1[nH]c(=O)n2C1OC(CO)C(O)C1O (stereo not drawn)
inactive: dose: 100.0 mg/kg/injection, schedule: Q04DX002 (ip), vehicle: saline with Tween-80 95 % of control | dose: 200.0 mg/kg/injection, schedule: Q04DX002 (ip), vehicle: saline with Tween-80 107 % of control | dose: 400.0 mg/kg/injection, schedule: Q04DX002 (ip), vehicle: saline with Tween-80 95 % of control

C=C(C)CSC#N
inactive: dose: 25.0 mg/kg/injection, schedule: Q04DX003 (ip), vehicle: saline with Tween-80 97 % of control | dose: 50.0 mg/kg/injection, schedule: Q04DX003 (ip), vehicle: saline with Tween-80 100 % of control | [1] 100 % of control and 107 % of control

— PubChem BioAssay AID256 (DTP/NCI, 2004)
